The values that follow come from patent publication US5114961A, “2,5-diaryl tetrahydrofurans and analogs thereof as PAF antagonists” (Merck & Co., Inc., priority 1990, dated 1992).

“And” between values parts separate entries of the source, which are not always exact repeats. Equal values may be shown once.

In the assay the target is T1, PAF specific receptor binding site (human platelet membranes) (Homo sapiens, UniProt P25105).
T1 construct: platelet membranes at a drug concentration of 3 nM; from tissue; host or cells: human platelet plasma membranes
The experiment in a line: Inhibition of [3H]N-methylcarbamoyl-PAF binding to human platelet membranes. Particulars: drug concentration of 3 nM, trans configuration. As to the method:
The ability of a compound of formula (I) to inhibit the PAF binding to its specific receptor binding site on rabbit or human platelet or PMN plasma membranes was measured by a recently developed assay.
The inhibition of ^3 [H]-PAF or ^3 [H]-N-methyl carbamoyl-TAF binding to the human or rabbit platelet or PMN plasma membrane by a PAF antagonist of formula (I) was determined by a method employing isotopic labeling and filtration techniques. Generally, a series of Tris-buffered solutions of the selected antagonist at predetermined concentrations were prepared. Each of these solutions contains 1 pmole of ^3 H-PAF, a known amount of the test antagonist, and a sufficient amount of the pH 7.5 Tris-buffer solution (10mM Tris, 0.25% bovine serum albumin, and 150 mM NaCl per ml water) to make the final volume of 1 ml. After adding into a set of test tubes each with 100 μg of the platelet plasma membrane suspension (S. B. Hwang, et. al., Biochemistry, Vol. 22 pp. 4756-4763, 1983) and one of the Tris-buffer solutions described above, the resulting mixture in each test tube was incubated at 0° C. for about one hours or until the reaction was complete. Two control samples, one of which (C1) contains all the ingredients described above except the antagonist and the other (C2) contains C1 plus a 100-fold excess of unlabeled PAF, were also prepared and incubated simultaneously with the test samples. After the incubation was completed, the contents of each test tube were filtered under vacuo through a Whatman GF/C fiberglass filter and the residue washed rapidly several times with a total of 20 ml cold (0°-5° C.) Tris-buffer solution. Each washed residue was then suspended in 10 ml scintillation solution (Aquasol 2, New England Nuclear, Conn.) and the radioactivity was counted in a Packard Tri-Carb 460CD Liquid Scintillation System. Defining the counts from a test sample as "Total binding with antagonist"; the counts from the control sample C1, as "Total binding C1 "; and the counts from the control sample C2 as "non-specific binding C2 ", the percent inhibition of each test antagonist can be determined by the following equations: [formula]

T1 sequence (P25105 whole entry): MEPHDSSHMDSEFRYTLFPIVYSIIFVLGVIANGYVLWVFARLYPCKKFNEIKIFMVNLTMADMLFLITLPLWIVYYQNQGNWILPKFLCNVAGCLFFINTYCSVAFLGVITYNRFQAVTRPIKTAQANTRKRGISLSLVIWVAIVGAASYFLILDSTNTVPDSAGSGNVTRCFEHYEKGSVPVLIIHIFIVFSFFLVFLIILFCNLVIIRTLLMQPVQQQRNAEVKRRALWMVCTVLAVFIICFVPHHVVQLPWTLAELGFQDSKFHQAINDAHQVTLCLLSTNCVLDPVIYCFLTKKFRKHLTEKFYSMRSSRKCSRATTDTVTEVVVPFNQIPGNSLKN

By inhibition is commonly meant how much of the control response was suppressed. Low readings indicate little suppression, high ones strong suppression. The compound `CCCOc1c(OCCN2CCNCC2)cc([C@@H]2CC[C@@H](c3cc(OC)c(OC)c(OC)c3)O2)cc1S(=O)(=O)CC(C)=O` (relative stereo) showed an inhibition at 0.003 µM of 34%. Still for that read-out and setting: to `CCCOc1c(OCCSc2ncc[nH]2)cc([C@H]2CC[C@H](c3cc(OC)c(OC)c(OC)c3)O2)cc1S(=O)(=O)CC(C)O` (relative stereo) [trans-2-[3-(2-Hydroxy-n-propylsulfonyl)-4-n-propoxy-5-{2-(2-imidazolylthio)ethoxy}phenyl]-5-(3,4,5-trimethoxyphenyl)tetrahydrofuran] belongs 34%; to `CCCOc1c(OCCCn2ccnc2)cc([C@H]2CC[C@H](c3cc(OC)c(OC)c(OC)c3)O2)cc1S(=O)(=O)CC(C)O` (relative stereo) [trans-2-[3-(2-Hydroxy-n-propylsulfonyl)-4-n-propoxy-5-{3-(1-imidazolyl)propoxy}phenyl]-5-(3,4,5-trimethoxyphenyl)tetrahydrofuran], 41%; to `CCCOc1c(OCCCSc2nc[nH]n2)cc([C@@H]2CC[C@@H](c3cc(OC)c(OC)c(OC)c3)O2)cc1S(=O)(=O)CC(C)O` (relative stereo) [trans-2-[3-(2-Hydroxy-n-propylsulfonyl)-4-n-propoxy-5-{3-(1H-1,2,4-triazolyl-3-thio)propoxy}phenyl]-5-(3,4,5-trimethoxyphenyl)tetrahydrofuran], 61%.

Take `CCCOc1c(OCCCSc2ncc[nH]2)cc([C@H]2CC[C@H](c3cc(OC)c(OC)c(OC)c3)O2)cc1S(=O)(=O)CC(C)O` (relative stereo) [trans-2-[3-(2-Hydroxy-n-propylsulfonyl)-4-n-propoxy-5-{3-(2-imidazolylthio)n-propoxy}phenyl]-5-(3,4,5-trimethoxyphenyl)tetrahydrofuran]: the inhibition at 0.003 µM worked out at 46%.

As to `CCCOc1c(OCCCCn2ccnc2)cc([C@H]2CC[C@H](c3cc(OC)c(OC)c(OC)c3)O2)cc1S(=O)(=O)CC(C)O` (relative stereo) [trans-2-[3-(2-Hydroxy-n-propylsulfonyl)-4-n-propoxy-5-{4-(1-imidazolyl)butoxy}phenyl]-5-(3,4,5-trimethoxyphenyl)tetrahydrofuran], the inhibition at 0.003 µM came to 43%. Same read-out and setting: with `CCCOc1c(OCCn2ccnc2)cc([C@@H]2CC[C@@H](c3cc(OC)c(OC)c(OC)c3)O2)cc1S(=O)(=O)CC(C)O` (relative stereo) [trans-2-[3-(2-Hydroxy-n-propylsulfonyl-4-n-propoxy-5-{2-(1-imidazolyl)ethoxy}phenyl]-5-(3,4,5-trimethoxyphenyl)tetrahydrofuran] the figure was 48%.

For the compound `CCCOc1c(OCCN2CCOCC2)cc([C@@H]2CC[C@@H](c3cc(OC)c(OC)c(OC)c3)O2)cc1S(=O)(=O)CC(C)O` (relative stereo) [trans-2-[3-(2-Hydroxypropylsulfonyl)-4-n-propoxy-5-{2-(1-morpholino)-n-ethoxy}phenyl]-5-(3,4,5-trimethoxyphenyl)tetrahydrofuran], testing at 0.003 µM gave an inhibition of 20%. On the same count and under the same terms, to `CCCOc1cc([C@@H]2CC[C@@H](c3cc(OC)c(OC)c(OC)c3)O2)cc(S(=O)(=O)CCN2CCOCC2)c1OCCC` (relative stereo) [trans-2-[3-(2-N-Morpholinoethylsulfonyl)-4,5-di-n-propoxyphenyl]-5-(3,4,5-trimethoxyphenyl)tetrahydrofuran] belongs 17%; to `CCCOc1cc([C@@H]2CC[C@@H](c3cc(OC)c(OC)c(OC)c3)O2)cc(S(=O)(=O)CCN2CCCC2)c1OCCC` (relative stereo) [trans-2-[3-(2-N-Pyrrolidinylethylsulfonyl)-4,5-dipropoxyphenyl]-5-(3,4,5-trimethoxyphenyl) tetrahydrofuran], 18%.

`CCCOc1c(OCCN2CCOCC2)cc([C@@H]2CC[C@@H](c3cc(OC)c(OC)c(OC)c3)O2)cc1S(=O)(=O)CC(C)=O` (relative stereo) [trans-2-[3-(2-Oxopropylsulfonyl)-4-n-propoxy-5-{2-(1-morpholino)-ethoxy}phenyl]-5-(3,4,5-trimethoxyphenyl)tetrahydrofuran] had an inhibition at 0.003 µM of 25%. The same measure, in the same setting: with `CCCOc1c(OCCN2CCCCC2)cc([C@H]2CC[C@H](c3cc(OC)c(OC)c(OC)c3)O2)cc1S(=O)(=O)CC(C)=O` (relative stereo) [trans-2-[3-(2-Oxopropylsulfonyl)-4-n-propoxy-5-{2-(1-piperidinyl)-ethoxy}phenyl]-5-(3,4,5-trimethoxyphenyl)tetrahydrofuran] the figure was 34%.

`CCCOc1c(OCCN2CCCC2)cc([C@@H]2CC[C@@H](c3cc(OC)c(OC)c(OC)c3)O2)cc1S(=O)(=O)CC(C)=O` (relative stereo) [trans-2-[3-(2-Oxopropylsulfonyl)-4-n-propoxy-5-{2-(1-pyrrolidino)-ethoxy}phenyl]-5-(3,4,5-trimethoxyphenyl)tetrahydrofuran] came in with an inhibition at 0.003 µM of 29%.

On to `CCCOc1c(OCCSc2ncc[nH]2)cc([C@H]2CC[C@H](c3cc(OC)c(OC)c(OC)c3)O2)cc1S(=O)(=O)CC(C)=O` (relative stereo) [trans-2-[3-(2-Oxopropylsulfonyl)-4-n-propoxy-5-{2-(2-imidazolylthio)ethoxy}phenyl]-5-(3,4,5-trimethoxyphenyl)tetrahydrofuran], for which the inhibition at 0.003 µM was 55%. In turn, `CCCOc1c(OCCCN2CCCC2)cc([C@@H]2CC[C@@H](c3cc(OC)c(OC)c(OC)c3)O2)cc1S(=O)(=O)CC(C)=O` (relative stereo) [trans-2-[3-(2-Oxopropylsulfonyl)-4-n-propoxy-5-{3-(1-pyrrolidino)-n-propoxy}phenyl]-5-(3,4,5-trimethoxyphenyl)tetrahydrofuran] had an inhibition at 0.003 µM of 48%. `CCCOc1c(OCCCSc2nc[nH]n2)cc([C@@H]2CC[C@@H](c3cc(OC)c(OC)c(OC)c3)O2)cc1S(=O)(=O)CC(C)=O` (relative stereo) [trans-2-[3-(2-Oxopropylsulfonyl)-4-n-propoxy-5-{3-(1H-1,2,4-triazolyl-3-thio)n-propoxy}phenyl]-5-(3,4,5-trimethoxyphenyl)tetrahydrofuran]: testing at 0.003 µM gave an inhibition of 69%. Same read-out and setting: with `CCCOc1c(OCCCSc2ncc[nH]2)cc([C@H]2CC[C@H](c3cc(OC)c(OC)c(OC)c3)O2)cc1S(=O)(=O)CC(C)=O` (relative stereo) [trans-2-[3-(2-Oxopropylsulfonyl)-4-n-propoxy-5-{3-(2-imidazolylthio)propoxy}phenyl]-5-(3,4,5-trimethoxyphenyl)tetrahydrofuran] the figure was 45%. Still for that read-out and setting: to `CCCOc1c(OCCCCN2CCOCC2)cc([C@@H]2CC[C@@H](c3cc(OC)c(OC)c(OC)c3)O2)cc1S(=O)(=O)CC(C)=O` (relative stereo) [trans-2-[3-(2-Oxopropylsulfonyl)-4-n-propoxy-5-{4-(1-morpholino)-n-butoxy}phenyl]-5-(3,4,5-trimethoxyphenyl)tetrahydrofuran] belongs 30%; to `CCCOc1c(OCCCCSc2ncc[nH]2)cc([C@H]2CC[C@H](c3cc(OC)c(OC)c(OC)c3)O2)cc1S(=O)(=O)CC(C)=O` (relative stereo) [trans-2-[3-(2-Oxopropylsulfonyl)-4-n-propoxy-5-{4-(2-imidazolylthio)butoxy}phenyl]-5-(3,4,5-trimethoxyphenyl)tetrahydrofuran], 60%. The same measure, in the same setting: to `CCCOc1c(OCCCN2CCOCC2)cc([C@@H]2CC[C@@H](c3cc(OC)c(OC)c(OC)c3)O2)cc1S(=O)(=O)CC(C)O` (relative stereo) [trans-2-[3-(2-hydroxypropyl-sulfonyl)-4-propoxy-5-{3-(1-morpholino)-n-propoxy}phenyl]-5-(3,4,5-trimethoxyphenyl)tetrahydrofuran] belongs 18%; to `CCCOc1c(OCCCN2CCOCC2)cc([C@@H]2CC[C@@H](c3cc(OC)c(OC)c(OC)c3)O2)cc1S(=O)(=O)CC(C)=O` (relative stereo) [trans-2-[3-(2-oxopropylsulfonyl)-4-n-propoxy-5-{3-(1-morpholino)-n-propoxy}phenyl]-5-(3,4,5-trimethoxyphenyl)tetrahydrofuran], 31%; to `CCCOc1c(OCCCN2CCOCC2)cc([C@@H]2CC[C@@H](c3cc(OC)c(OC)c(OC)c3)O2)cc1S(=O)(=O)CCC(C)O` (relative stereo) [trans-2-[3-(3-Hydroxybutyl)sulfonyl-4-n-propoxy-5-(3-{1-morpholino}-n-propoxy)phenyl]-5-(3,4,5-trimethoxyphenyl)tetrahydrofuran], 25%.

Regarding `CCCS(=O)(=O)c1cc([C@H]2CC[C@H](c3cc(OC)c(OC)c(OC)c3)O2)cc(OC)c1OCCSc1ccc(O)cc1` (relative stereo) [trans-2-[3-Propylsulfonyl-4-{2-(4-hydroxyphenylthio)-ethoxy}-5-methoxyphenyl]-5-(3,4,5-trimethoxyphenyl) tetrahydrofuran], the “% Inhibition of the binding of [3H]N-methylcarbamoyl-PAF to human platelet membranes” value (0.003 µM) was 60% and 100%.
